Entries after “also recorded” stand apart in the source; their conditions may differ. RB = Rose Bengal carboxylic acid derivative, attached to the N-terminus
Columns and labels:
[1] = system: B16-F10-Luc2 melanoma tumour; test: PDT and SDT treatment of ectopic B16 melanoma tumours in SCID mice (Example 6); type: in vivo; details: 100 μL of 100 μM by tail vein injection
Method: B16-F10-Luc2 cells (3×10^5) maintained as described in Example 3, were re-suspended in 100 μL of PBS and implanted into the rear dorsum of SCID mice. Four days after implantation tumour measurements were taken using calipers and tumour volume calculated from the geometric mean diameter using the equation: tumour volume=4πR^3/3. The animals were then randomly distributed into […] (n=5): Group 1 involved untreated animals; Group 2 treated with the RB-(KLAKLAK)2 (SEQ ID NO. 1) conjugate and no light; Group 3 treated with the RB-(KLAKLAK)2 (SEQ ID NO. 1) conjugate and light; Group 4 treated with the RB-(KLAKLAK)2 (SEQ ID NO. 1) conjugate and SDT, and Group 5 treated with RB and light. Following induction of anaesthesia (intraperitoneal injection of Hypnorm/Hypnovel), a 100 μL aliquot of PBS containing 100 μM RB or the RB-(KLAKLAK)2 (SEQ ID NO. 1) conjugate was administered by tail vein injection. Group 3 and Group 5: 30 minutes later tumours were exposed to white light for 3 min (68.4 J/cm^−2). […] After treatment, animals were allowed to recover from anaesthesia and tumour volume was monitored for 12 days with animals retreated using the same conditions on days 1, 2, 7 and 9. The % increase in tumour volume was calculated employing the pre-treatment measurements for each group. […]

[2] = system: PANC-1 epithelioid carcinoma cells; test: PDT of PANC-1 pancreatic cancer cells, MTT cell viability assay; type: cell-based, Human; details: 0.05, 0.1, 0.5, 1 μM, 3 h incubation, white light 1 min (22.8 J/cm^2), viability 24 h later
Method: (§1) Human PANC-1 epithelioid carcinoma cells were maintained Dulbecco's Modified Eagle Media (DMEM) supplemented with 10% foetal bovine serum (FBS) and 1% penicillin streptomycin. The cells were incubated at 37° C. in a humidified 5% (v/v) CO2 atmosphere. Cells were seeded at a concentration of 5×10^3 cells per well in 96-well tissue culture plate for 24 hours. The medium was removed from each well and the cells incubated for 3 h with drug (100 μL) at concentrations of 0.05 μM, 0.1 μM, 0.5 μM and 1 μM in media. The drug solution was then removed and the cells washed twice with PBS, fresh media was added and selected wells exposed to white light for 1 min (22.8 J/cm^2). Fresh media was then added to each of the wells and cell viability determined 24 h later using a MTT assay. Each experiment was repeated on 3 separate occasions with an n=6 on each occasion.

[3] = system: B16-F10-Luc2 melanoma cells; test: PDT of B16 melanoma cells, bioluminescent assay; type: cell-based, murine; details: 2.5, 5.0, 10 μM plus white light (22.8 J/cm^2)
Method: (§2) Murine melanoma B16-F10 Luc-2 cells were maintained Dulbecco's Modified Eagle Media (DMEM) supplemented with 10% foetal bovine serum (FBS) and 1% penicillin streptomycin. The cells were incubated at 37° C. in a humidified 5% (v/v) CO2 atmosphere. Cells were seeded at a concentration of 4×10^3 cells per well in 96-well tissue culture plate for 24 hours. The medium was removed from each well and the cells incubated for 3 h with drug (100 μL) at concentrations of 2.5 μM, 5.0 μM and 10 μM in media. The drug solution was then removed and selected wells exposed to white light for 1 min (22.8 J/cm^2). Fresh media was then added to each of the wells and cell viability determined 24 h later using a MTT assay. Each experiment was repeated on 3 separate occasions with an n=6 on each occasion.
For the bioluminescent assay, imaging was undertaken using a Xenogen IVIS-100 bioluminescence/fluorescence optical imaging system. Treatments were performed as described above. D-Luciferin at 1.5% w/w was then added to treated wells and bioluminescence intensity was quantified 5 min later using the IVIS-100 system and Living Image Software as per protocol (Caliper LifeSciences). Regions of interest (RoI) were drawn around the wells to evaluate the intensity of signal emitted and expressed photons/second (p/s).

[4] = system: B16-F10-Luc2 melanoma cells; test: SDT of B16 melanoma cells, MTT cell viability assay; type: cell-based, murine; details: 2.5, 5.0, 10 μM, 3 hours incubation, ultrasound, viability 24 hours later
[5] = system: B16-F10-Luc2 melanoma tumour; test: PDT of B16 melanoma tumour growth in a mouse model (Example 5); type: in vivo, SCID mice; details: for tumour growth / tumour size, as part of PDT: 100 μL of 100 μM by tail vein injection, white light 3 min (68.4 J/cm^-2) 30 minutes later, retreated days 1, 2, 7, 9
Method: In these studies all animals were treated humanely and in accordance with licensed procedures under the UK Animals (Scientific Procedures) Act 1986. B16-F10-Luc2 cells (3×10^5) maintained as described in Example 3, were re-suspended in 100 μL of PBS and implanted into the rear dorsum of SCID mice. Four days after implantation tumour measurements were taken using calipers and tumour volume calculated from the geometric mean diameter using the equation: tumour volume=4πR^3/3. The animals were then randomly distributed into four groups (n=5): Group 1 involved untreated animals; Group 2 treated with the RB-(KLAKLAK)2 (SEQ ID NO. 1) conjugate and no light; Group 3 treated with the RB-(KLAKLAK)2 (SEQ ID NO. 1) conjugate and light; Group 4 treated with RB and light. Following induction of anaesthesia (intraperitoneal injection of Hypnorm/Hypnovel), a 100 μL aliquot of PBS containing 100 μM RB or the RB-(KLAKLAK)2 (SEQ ID NO. 1) conjugate was administered by tail vein injection. Group 3 and Group 4: 30 minutes later tumours were exposed to white light for 3 min (68.4 J/cm^−2). After treatment, animals were allowed to recover from anaesthesia and tumour volume was monitored for 12 days with animals retreated using the same conditions on days 1, 2, 7 and 9. The % increase in tumour volume was calculated employing the pre-treatment measurements for each group. On day 13, the animals were euthanized and the tumours were removed for analysis.

[6] = system: B16-F10-Luc2 melanoma cells; test: PDT of B16 melanoma cells, MTT cell viability assay; type: cell-based, murine; details: 2.5, 5.0, 10 μM, 3 h incubation, white light 1 min (22.8 J/cm^2), viability 24 h later
Method: as §2

[7] = system: MCF-7 invasive breast ductal carcinoma cells; test: PDT of MCF-7 breast cancer cells, MTT cell viability assay; type: cell-based, Human; details: 0.05, 0.1, 0.5, 1 μM, 3 h incubation, white light 1 min (22.8 J/cm^2), viability 24 h later
Method: as §1, with “MCF-7 invasive breast ductal” for “PANC-1 epithelioid”

| Substance | tumour growth, as part of SDT ([1]; ultrasound 3.5 min, 3 W cm-2, 1 MHz, duty cycle 30%) | tumour growth, as part of PDT ([1]; white light 3 min (68.4 J/cm^-2) 30 minutes later) | cell viability (MTT), cell killing as part of PDT [2] | bioluminescent intensity relative to the control [3] | cell viability (MTT), cell killing as part of SDT [4] | tumour growth / tumour size, as part of PDT [5] | tumour growth / tumour size, as part of PDT ([5]; listed as conjugate of Rose Bengal and a peptide having the amino acid sequence defined by) | tumour growth, as part of SDT ([5]; as stated in the result sentence of Example 5) | cell viability (MTT), cytotoxic effect as part of PDT [6] | cell viability (MTT), cytotoxic effect as part of PDT ([6]; listed as RB-C(KLAKLAK)2 L enantiomer) | cell viability (MTT), cell killing as part of PDT [7] |
| --- | --- | --- | --- | --- | --- | --- | --- | --- | --- | --- | --- |
| RB-(KLAKLAK)2: conjugate of Rose Bengal and all-D peptide Lys-Leu-Ala-Lys-Leu-Ala-Lys-Lys-Leu-Ala-Lys-Leu-Ala-Lys (SEQ ID NO: 1), no cysteine (KLAKLAKKLAKLAK; not fully specified; Rose Bengal conjugate; all-D amino acids) | effectively reduced B16-F10-Luc2 melanoma tumour growth | effectively reduced B16-F10-Luc2 melanoma tumour growth; also recorded: PDT was superior | – | – | – | – | – | – | – | – | – |
| RB-C(KLAKLAK)2: conjugate of Rose Bengal and peptide Cys-Lys-Leu-Ala-Lys-Leu-Ala-Lys-Lys-Leu-Ala-Lys-Leu-Ala-Lys (SEQ ID NO: 2) ({RB}-CKLAKLAKKLAKLAK-NH2; also: Rose Bengal conjugate, site not given here) | – | – | effectively killed PANC-1 epithelioid carcinoma cells | significant reduction in bioluminescence | effectively killed B16-F10-Luc2 melanoma cells | effectively reduced B16-F10-Luc2 melanoma tumour growth; also recorded: inhibited tumour growth to a greater extent | significant reduction in tumour size | effectively reduced B16-F10-Luc2 melanoma tumour growth | significantly better than photodynamic therapy using Rose Bengal alone; also recorded: effectively killed B16-F10-Luc2 melanoma cells | more potent cytotoxic effect than the RB-C(KLAKLAK)2 (SEQ ID NO. 2) D enantiomer | effectively killed MCF-7 invasive breast ductal carcinoma cells |
| RB-C(KLAKLAK): conjugate of Rose Bengal and peptide Cys-Lys-Leu-Ala-Lys-Leu-Ala-Lys (SEQ ID NO: 6) ({RB}-CKLAKLAK-NH2; not fully specified) | – | – | effectively killed PANC-1 epithelioid carcinoma cells | – | – | – | – | – | – | – | effectively killed MCF-7 invasive breast ductal carcinoma cells |

From US11712473B2, “Sensitizer-peptide conjugate” (UNIVERSITY OF ULSTER, priority 2017, dated 2023)
